Measured values reported in patent publication US20050054103A1, “Expansion of renewable stem cell populations using modulators of PI 3-kinase” (priority 2003, published 2005).

Experiments:
[1] = tested on: Mouse erythroleukemic cells (MEL); assay: HMBA-induced differentiation of erythroleukemic cells; assay type: cell-based; conditions: day 3
Experimental: Mouse erythroleukemic cells (MEL): MEL cells are erythroblast like cells. Following treatment with several chemicals (differentiation inducers) the cells undergo erythroid differentiation and accumulate hemoglobin. […] At day 3 of the culture, the total number of cells and the percentage of hemoglobin-containing cells were determined (Table 7).
On day 3, total cell number and hemoglobin containing (benzidine positive) cells were determined.

CD34 cells = assay: Transition metal chelators in CD34+ cell liquid cultures (cell number, CD34 cells, clonability); assay type: cell-based, human; conditions: for Cells/ml (×10^4): FL, SCF, IL-6 50 ng/ml; for CFU expansion (fold): CFU day 7 / CFU day 0
Experimental: The interphase layer of mononuclear cells were collected, washed three times with Ca/Mg free phosphate buffered saline containing 1% bovine serum albumin (BSA). The cells were incubated for 30 min. at 4° C. with murine monoclonal anti CD34 antibody (0.5 μg/10^6 mononuclear cells) and thereafter isolated using the miniMACS apparatus (Miltenyi-Biotec, Bergisch, Gladbach, Germany) according to the manufacturer's protocol.
Culture procedures: For the expansion of progenitor cells, CD34^+ enriched fractions or unseparated mononuclear cells were seeded at about 1-3×10^4 cells/ml in either alpha minimal essential medium containing 10% preselected fetal calf serum (FCS) (both from GIBCO, Grand Island, N.Y.), or serum-free medium (Progenitor-34 medium, Life Technologies, Grand Island, N.Y.). The media were supplemented with a mixture of growth factors and transition metal chelators. The cultures were incubated at 37° C. in an atmosphere of 5% CO2 in air with extra humidity. Half of the medium was changed weekly with fresh medium containing all the supplements.
Cloning potential evaluations: The cloning potential of cells developed in the liquid culture was assayed, at different intervals, in semi-solid medium. The cells were washed and seeded in 35 mm dishes in methylcellulose containing alpha medium supplemented with recombinant growth factors (SCF, G-CSF, GM-CSF and EPO). Following 2 weeks incubation, the cultures were scored with an inverted microscope. Colonies were classified as blast, mixed, erythroid, myeloid, and megakaryocytic, according to their cellular composition.
Morphological assessment: In order to characterize the resulting culture populations, aliquots of cells were deposited on a glass slide (cytocentrifuge, Shandon, Runcorn, UK), fixed and stained in May-Grunwald Giemsa. Other aliquots were stained by benzidine for intracellular hemoglobin.
Immunofluorescence staining: At different intervals, cells from the liquid cultures were assayed for CD34 antigen. Aliquots were harvested, washed and incubated on ice with FITC-labeled anti CD45 monoclonal antibody and either PE-labeled anti CD34 (HPCA-2) monoclonal antibody or PE-labeled control mouse Ig. After incubation, red cells were lysed with lysing solution, while the remaining cells were washed and analyzed by flow cytometer.
Flow cytometry: Cells were analyzed and sorted using FACStar^plus flow cytometer (Becton-Dickinson, Immunofluorometry systems, Mountain View, Calif.). Cells were passed at a rate of 1,000 cells/second through a […] nozzle, using saline as the sheath fluid. […] The PMTs was set at the appropriate voltage. Logarithmic amplification was applied for measurements of fluorescence and linear amplification—for forward light scatter. At least 10^4 cells were analyzed.
Cord blood-derived CD34 cells were plated in liquid culture in the presence of: FL—50 ng/ml, SCF—50 ng/ml, IL-6—50 ng/ml, with or without IL-3—20 ng/ml, with or without TEPA—10 μM. On day 7, the percentage of CD34 cells and the total cell number were determined. Aliquots equivalent to 1×10^3 initiating cells were assayed on days 0 and 7 for colony forming cells (CFU) by cloning in semi-solid medium. CFU expansion represents the ratio of CFU present on day 7 to CFU present on day 0.
CD34^+ cells derived from human neonatal cord blood were purified by immunomagnetic method and then cultured in liquid medium supplemented with cytokines either with or without transition metal chelators. At weekly intervals, the cultures were demi-depopulated by removing half of the culture content (supernatant and cells) and replacing it with fresh medium, cytokines and the chelators. At the indicated weeks the cellular content of the cultures were quantified for total cells (by a manual microscopic/hemocytometric method), for CD34^+ cells (by immuno-flow cytometry) and for clonogenic cells (by cloning the cells in cytokine-supplemented semi-solid medium).

[2] = TEPA 10 μM, without IL-3, day 7

SMILES: NCCNCCNCCNCCN [TEPA, tetraethylenepentamine]
- Benzidine Positive Cells (%) ([1]; HMBA + chelator 5 μM): 24%
- Cells/ml (×10^4) ([1]; HMBA + chelator 5 μM): 35 ×10^4
- Benzidine Positive Cells (%) ([1]; HMBA + chelator 10 μM): 16%
- Cells/ml (×10^4) ([1]; HMBA + chelator 10 μM): 35 ×10^4
- Benzidine Positive Cells (%) ([1]; HMBA + chelator 20 μM): 16%
- Cells/ml (×10^4) ([1]; HMBA + chelator 20 μM): 47 ×10^4
- effect on differentiation of CD34+ cells (CD34 cells): inhibit differentiation
- Cells/ml (×10^4) (CD34 cells; TEPA 10 μM, with IL-3 20 ng/ml, day 7): 11 ×10^4
- Cells/ml (×10^4) (CD34 cells; [2]): 2 ×10^4
- CD34 cells (%) (CD34 cells; TEPA 10 μM, with IL-3, day 7): 20%
- Colonies (Per 1 × 10^3 initiating cells) (CD34 cells; TEPA 10 μM, with IL-3, day 7): 850
- CFU expansion (fold) (CD34 cells; TEPA 10 μM, with IL-3): 17 fold
- CD34 cells (%) (CD34 cells; [2]): 11.5%
- Colonies (Per 1 × 10^3 initiating cells) (CD34 cells; [2]): 140
- CFU expansion (fold) (CD34 cells; TEPA 10 μM, without IL-3): 2.8 fold
- CFUc expansion (CD34 cells; after 6 weeks): 120 fold
- CFUc content of cultures (CD34 cells; after 6 weeks, started with 2.5×10^3 CFUc): 300×10^3 CFUc
- time long-term CD34 cultures could be maintained (CD34 cells; early-acting cytokines, no stromal cells, TEPA 10 μM): > 6 weeks
- cell proliferation and CFUc expansion in long-term CD34 cultures (CD34 cells; long term cultures with early cytokines): more effective than the short-chain polyamines
- concentration with optimal activity (CD34 cells; polyamine chelating agents, long-term CD34 cultures (FIGS. 39a-b)): 40 µM
- concentration with optimal activity (CD34 cells; transition metal chelating agents, long-term CD34 cultures (FIGS. 40a-b)): 10 µM
